We go through 34 compounds from ChEMBL document CHEMBL3046582, “Antifeedant activity of sesquiterpenes from celastraceae” (1997).

The subject of assay [1] is Spodoptera littoralis. As to the kind of experiment: Antifeedant activity against newly ecdysed fifth-instar larval stage of Spodoptera littoralis in compound-pretreated lettuce leaf disks assessed as consumed area of leaf disks at 10 ug/cm'2 measured at 30 min intervals for 4-5 hr post-drug exposure by choice test. In kind it is functional.
Assay [2] relates to Spodoptera littoralis. As to the kind of experiment: Antifeedant activity against newly ecdysed fifth-instar larval stage of Spodoptera littoralis in compound-pretreated lettuce leaf disks assessed as consumed area of leaf disks at 0.1 ug/cm'2 measured at 30 min intervals for 4-5 hr post-drug exposure by choice test. The format is functional.
Assay [3] deals with Spodoptera littoralis. The assay can be described thus: Antifeedant activity against newly ecdysed fifth-instar larval stage of Spodoptera littoralis in compound-pretreated lettuce leaf disks assessed as consumed area of leaf disks at 1 ug/cm'2 measured at 30 min intervals for 4-5 hr post-drug exposure by choice test. In kind it is functional.
Assay [4] has as its system Spodoptera littoralis. As to the kind of experiment: Antifeedant activity against newly ecdysed fifth-instar larval stage of Spodoptera littoralis in compound-pretreated lettuce leaf disks assessed as consumed area of leaf disks measured at 30 min intervals for 4-5 hr post-drug exposure by choice test. In kind it is functional, organism-based.
Assay [5] relates to Spodoptera littoralis. As to the kind of experiment: Insecticidal activity against newly ecdysed fifth-instar larval stage of Spodoptera littoralis in compound-pretreated lettuce leaf disks assessed as mortality at 3 hr post-drug exposure. In kind it is functional.
Assay [6] concerns Spodoptera littoralis. As to the kind of experiment: Antifeedant activity against newly ecdysed fifth-instar larval stage of Spodoptera littoralis in compound-pretreated lettuce leaf disks assessed as consumed area of leaf disks at 0.01 ug/cm'2 measured at 30 min intervals for 4-5 hr post-drug exposure by choice test. The format is functional.

The source made the active and inactive calls. The rule behind the calls is not given here.

On to `CC(=O)O[C@@H]1[C@@H]2[C@@H](OC(C)=O)[C@@]3(OC2(C)C)[C@@](OC(C)=O)([C@@H](OC(C)=O)CC[C@]3(C)O)[C@@H]1OC(=O)c1ccccc1`, for which the FR50 with Spodoptera littoralis [1] stood at 0.03; in the assay with Spodoptera littoralis [2] it was 0.64; in the assay on Spodoptera littoralis [3] it was 0.2.
For `CC(=O)O[C@H]1[C@H](OC(=O)c2ccccc2)[C@@]2(C)[C@@H](OC(=O)c3ccccc3)C[C@@H]3[C@@H](OC(C)=O)[C@]2(OC3(C)C)[C@@](C)(O)[C@H]1O` [2BETA,3BETA,4BETA,TRIHYDROXYCELARBICO], the FR50 with Spodoptera littoralis [1] was 0.24; in the assay on Spodoptera littoralis [3] it was 0.44.
The matching figures for `CC(=O)O[C@@H]1[C@@H]2[C@@H](OC(C)=O)[C@@]3(OC2(C)C)[C@@](OC(C)=O)([C@@H](OC(=O)c2ccccc2)CC[C@]3(C)O)[C@@H]1OC(=O)c1ccccc1`: 0.24 and 0.58.
In the case of `COCCCC[C@@H]1[C@@H]2[C@@H](OC(C)=O)[C@@]3(OC2(C)C)[C@](OC(C)=O)([C@@H]1OC(=O)c1ccccc1)[C@@H](O)CC[C@]3(C)O`, the FR50 in the assay with Spodoptera littoralis [1] was 0.08; in the assay on Spodoptera littoralis [2], 0.57; in the assay with Spodoptera littoralis [3], 0.23.
Take `CC(=O)O[C@H]1C[C@](C)(O)[C@]23OC(C)(C)[C@H]([C@@H](C(C)=O)[C@@H](OC(=O)c4ccccc4)[C@]2(OC(C)=O)[C@H]1OC(C)=O)[C@H]3OC(C)=O`: the FR50 with Spodoptera littoralis [1] is 0.05; in the assay with Spodoptera littoralis [2], 0.4; in the assay with Spodoptera littoralis [3] it was 0.24.
In the case of `CC(=O)O[C@H]1CC[C@](C)(O)[C@]23OC(C)(C)[C@H]([C@@H](OC(=O)c4ccccc4)[C@@H](OC(=O)c4ccccc4)[C@]12OC(C)=O)[C@H]3OC(C)=O`, the FR50 is 0.15 with Spodoptera littoralis [1] and 0.4 in the assay on Spodoptera littoralis [3].
`CC(=O)O[C@H]1C[C@](C)(O)[C@]23OC(C)(C)[C@H]([C@@H](OC(C)=O)[C@@H](OC(=O)c4ccccc4)[C@]2(OC(C)=O)C1)[C@H]3OC(C)=O`: the FR50 with Spodoptera littoralis [1] is reported as 0.1; in the assay on Spodoptera littoralis [2] it was 1.1; in the assay with Spodoptera littoralis [3] it was 0.18.
On to `OC1CCOC1` (stereo in doubt; 46), for which the result in the assay on Spodoptera littoralis [4] was inactive. Besides, in the assay with Spodoptera littoralis [5], the LD100 result is “inactive”.
For `OCC1CCOC1` (centres undefined), the outcome with Spodoptera littoralis [4] was inactive. In the assay with Spodoptera littoralis [5], the LD100 entry was “inactive”.
As for `O=C(OCC1CCCO1)c1cc([N+](=O)[O-])cc([N+](=O)[O-])c1` (centres undefined), the outcome in the assay with Spodoptera littoralis [4] was inactive. In addition, the LD100 result in the assay on Spodoptera littoralis [5] is “inactive”.
For `CC(=O)OCC1CCCO1` (centres undefined), the result in the assay with Spodoptera littoralis [4] was inactive. Further, in the assay with Spodoptera littoralis [5], the LD100 entry is “inactive”.
Turning to `COCCCC[C@@H]1[C@@H]2[C@@H](OC(C)=O)[C@@]3(OC2(C)C)[C@@](OC(C)=O)([C@@H](OC(C)=O)CC[C@]3(C)O)[C@@H]1OC(=O)c1ccccc1`, the FR50 in the assay on Spodoptera littoralis [1] is 0; with Spodoptera littoralis [6], 0.69; with Spodoptera littoralis [2] it was 0.23; in the assay with Spodoptera littoralis [3] it was 0.
Take `CC(=O)O[C@H]1[C@@H]2[C@@H](OC(=O)c3cccnc3)[C@@]3(OC2(C)C)[C@@](C)([C@@H](OC(=O)c2ccccc2)CC[C@]3(C)O)[C@@H]1OC(C)=O`: the FR50 was 0.04 in the assay with Spodoptera littoralis [1], 0.45 in the assay on Spodoptera littoralis [2] and 0.15 with Spodoptera littoralis [3].
Take `CC(=O)O[C@H]1C[C@](C)(O)[C@]23OC(C)(C)[C@H](C(=O)[C@@H](OC(=O)c4ccccc4)[C@]2(OC(C)=O)[C@H]1OC(=O)c1ccccc1)[C@H]3OC(C)=O`: in the assay with Spodoptera littoralis [5], the LD100 is recorded as 0.1 microg/cm2.
Consider `C/C=C(/C)C(=O)O[C@@H]1[C@@H]2[C@@H](OC(C)=O)[C@@]3(OC2(C)C)[C@@](OC(C)=O)([C@@H](OC(C)=O)CC[C@]3(C)O)[C@@H]1OC(=O)c1ccccc1`, for which the FR50 was determined as 0.06 in the assay with Spodoptera littoralis [1] and 0.2 with Spodoptera littoralis [3].
As for `CCC(C)C(=O)OC` (single isomer, unassigned; (+)), in the assay on Spodoptera littoralis [4], the outcome was inactive. The LD100 result with Spodoptera littoralis [5] is “inactive”.
In the case of `C/C=C(/C)C(=O)O[C@@H]1[C@@H]2[C@@H](OC(C)=O)[C@@]3(OC2(C)C)[C@@](OC(C)=O)([C@@H](OC(=O)c2ccccc2)CC[C@]3(C)O)[C@@H]1OC(=O)c1ccccc1`, the FR50 in the assay on Spodoptera littoralis [1] stood at 0.12; in the assay with Spodoptera littoralis [3], 0.29.
As to `O=C(OC1CCOC1)c1cc([N+](=O)[O-])cc([N+](=O)[O-])c1` (racemic), the result in the assay on Spodoptera littoralis [4] was inactive. Also, the LD100 entry with Spodoptera littoralis [5] is “inactive”.
With `CC(=O)O[C@@H]1[C@@H]2[C@@H](OC(C)=O)[C@@]3(OC2(C)C)[C@](O)([C@@H]1OC(=O)c1ccccc1)[C@@H](OC(C)=O)[C@@H](C(C)=O)C[C@]3(C)O`, the FR50 with Spodoptera littoralis [1] is reported as 0.16; with Spodoptera littoralis [3] it was 0.66.
Consider `CC(=O)O[C@H]1C[C@](C)(O)[C@]23OC(C)(C)[C@H](C(=O)[C@@H](OC(=O)c4ccccc4)[C@]2(OC(C)=O)[C@H]1OC(C)=O)[C@H]3OC(C)=O`, for which the LD100 in the assay with Spodoptera littoralis [5] is listed as 1 microg/cm2.
For `CC(=O)O[C@@H]1[C@H]2C[C@H](OC(=O)c3ccccc3)[C@]3(O)[C@@H](OC(C)=O)[C@@H](C(C)=O)CC(C)[C@@]13OC2(C)C` (some centres undefined), the figures for the FR50 in the assay on Spodoptera littoralis [1] and in the assay with Spodoptera littoralis [3] were 0.19 and 0.54, respectively.
Take `CCC(C)C(=O)OC` (stereo in doubt; 54): the outcome in the assay on Spodoptera littoralis [4] was inactive. Besides, the LD100 result with Spodoptera littoralis [5] is “inactive”.
For `OC1CCOC1` (racemic), the result in the assay on Spodoptera littoralis [4] was inactive. Also, the LD100 entry with Spodoptera littoralis [5] was “inactive”.
Consider `CC(=O)O[C@H]1CC[C@](C)(O)[C@]23OC(C)(C)[C@H](C[C@H](OC(=O)c4ccccc4)[C@]12OC(C)=O)[C@H]3OC(C)=O`, for which the FR50 came out at 0.11 in the assay on Spodoptera littoralis [1], 0.4 with Spodoptera littoralis [2] and 0.12 with Spodoptera littoralis [3].
Regarding `CC(=O)OCC1CCOC1` (centres undefined), in the assay with Spodoptera littoralis [4], the outcome was inactive. The LD100 entry in the assay with Spodoptera littoralis [5] was “inactive”.
For `CC(=O)O[C@H]1C[C@](C)(O)[C@]23OC(C)(C)[C@H]([C@@H](C(C)=O)[C@@H](OC(=O)c4ccccc4)[C@]2(OC(C)=O)[C@H]1OC(=O)c1ccccc1)[C@H]3O`, the figures for the FR50 in the assay with Spodoptera littoralis [1], in the assay with Spodoptera littoralis [2] and in the assay with Spodoptera littoralis [3] were 0.1, 1.02 and 0.19, respectively.
`CC(=O)O[C@@H]1[C@@H]2[C@@H](OC(C)=O)[C@]3(OC2(C)C)C(C)C[C@H](C(C)=O)[C@H](OC(C)=O)[C@@]3(O)[C@H]1OC(=O)c1ccccc1` (some centres undefined): the FR50 in the assay with Spodoptera littoralis [1] was 0.13; with Spodoptera littoralis [3], 0.71.
For the compound `CC[C@@H]1CCC(=O)O[C@H]2[C@H](OC(C)=O)[C@H](OC(C)=O)[C@@]3(OC(C)=O)[C@H](OC(C)=O)C(=O)[C@@H]4[C@@H](OC(C)=O)[C@]3(O[C@@]4(C)COC(=O)c3ccccc31)[C@@]2(C)O` [ORTHOSPHENINE], the LD100 in the assay on Spodoptera littoralis [5] worked out at 0.01 microg/cm2.
On to `O=C(OC1CCOC1)c1ccccc1` (racemic), for which the outcome in the assay with Spodoptera littoralis [4] was inactive. The LD100 result with Spodoptera littoralis [5] is “inactive”.
Consider `O=C(OCC1CCCO1)c1ccccc1` (centres undefined), for which the outcome with Spodoptera littoralis [4] was inactive. Also, the LD100 result in the assay on Spodoptera littoralis [5] was “inactive”.
`CC(=O)OC1CCOC1` (single isomer, unassigned; (+)): the result in the assay with Spodoptera littoralis [4] was inactive. Besides, in the assay with Spodoptera littoralis [5], the LD100 result is “inactive”.
With `CC(=O)O[C@@H]1[C@@H]2[C@@H](OC(C)=O)[C@]3(OC2(C)C)C(C)C[C@H](C(C)=O)[C@H](OC(C)=O)[C@@]3(OC(C)=O)[C@H]1OC(=O)c1ccccc1` (some centres undefined), the FR50 in the assay on Spodoptera littoralis [1] is listed as 0.07; with Spodoptera littoralis [3] it was 0.53.
Turning to `CC(=O)OC1CCOC1` (racemic), in the assay with Spodoptera littoralis [4], the result was inactive. Moreover, in the assay with Spodoptera littoralis [5], the LD100 entry was “inactive”.
Regarding `OCC1CCCO1` (centres undefined), in the assay on Spodoptera littoralis [4], the outcome was inactive. Further, in the assay on Spodoptera littoralis [5], the LD100 entry is “inactive”.
